Where a name gives a salt, the structure may show the parent alone.
Assays:
THP-1 (AML) cells = experiment: LSD1 CD11b cellular assay (flow cytometry); format: cell-based; conditions: Homo sapiens, 96 h; CD11b expression in THP-1 (AML) cells, flow cytometry, 4 days incubation; read-out: Cellular IC50
Procedure: To analyze LSD1 inhibitor efficacy in cells, a CD11b flow cytometry assay was performed. LSD1 inhibition induces CD11b expression in THP-1 (AML) cells which can be measured by flow cytometry. […] LSD1 test compounds were serially diluted in DMSO. The dilutions were added to each well accordingly to a final concentration of 0.2% DMSO. The cells were incubated at 37° C. in 5% CO2 for 4 days. 250 μL of each well was transferred to a well in a 96 well round bottom plate. The plate was centrifuged at 1200 rpm at 4 degrees Celsius in a Beckman Coulter Alegra 6KR centrifuge for 5 min. The media was removed leaving the cells at the bottom of the wells. The cells were washed in 100 μL cold HBSS (Hank's Balanced Salt Solution) plus 2% BSA (Bovine Serum Albumin) solution and centrifuged at 1200 rpm at 4° C. for 5 min. The wash was removed. […] The cells were centrifuged and washed two times in 100 μl HBSS plus 2% BSA. After the final spin the cells were resuspended in 100 μL HBSS plus 2% BSA containing 1 μg/mL DAPI (4′,6-diamidino-2-phenylindole). The cells were then analyzed by flow cytometry in a BD FACSAria machine. Cells were analyzed for CD11b expression. The percent of CD11b expressing cells for each inhibitor concentration was used to determine an IC50 curve for each compound analyzed.

full-length human LSD1 = full-length human LSD1 (Homo sapiens (Human), UniProt O60341); experiment: In vitro enzyme inhibition assay LSD-1 (TR-FRET); format: biochemical; conditions: TR-FRET, 0.1 nM LSD1, 50 nM H3K4me1-biotin peptide, 2 μM FAD, pH7.3; read-out: LSD1 IC50
Procedure: This assay determines the ability of a test compound to inhibit LSD1 demethylase activity.
The enzymatic assay of LSD1 activity is based on Time Resolved-Fluorescence Resonance Energy Transfer (TR-FRET) detection.
The ability of the compounds disclosed herein to inhibit LSD1 activity was quantified and the respective IC50 value was determined. Table 5 provides the IC50 values of various substituted heterocyclic compounds disclosed herein.

SMILES | IC50 (THP-1 (AML) cells) [nM] | IC50 (full-length human LSD1) [nM]
N#Cc1ccc(-c2nc(N3CCC(N)CC3)ncc2-c2ccc3nc[nH]c3c2)cc1 [Example 91, 4-[2-(4-aminopiperidin-1-yl)-5-(3H-benzimidazol-5-yl)pyrimidin-4-yl]benzonitrile] | 100 to 1000 | < 100
N#Cc1ccc(-c2nc(N3CCC(N)CC3)ncc2C#CC2(O)CCCC2)cc1 [Example 70, 4-{2-(4-aminopiperidin-1-yl)-5-[2-(1-hydroxycyclopentyl)ethynyl]pyrimidin-4-yl]benzonitrile] | < 100 | < 100
COc1nc(N2CCC(N)CC2)nc(-c2ccc(C#N)c(F)c2)c1-c1ccc2nn(C)cc2c1 [Example 147, 4-[2-(4-aminopiperidin-1-yl)-6-methoxy-5-(2-methyl-2H-indazol-5-yl)pyrimidin-4-yl]-2-fluorobenzonitrile] | < 100 | < 100
CNc1nc(N2CC[C@@H](N)[C@@H](F)C2)nc(-c2ccc(C#N)cc2)c1-c1ccc2nn(C)cc2c1 [Example 177, 4-{2-[(3S,4R)-4-amino-3-fluoropiperidin-1-yl]-5-(2-methyl-2H-indazol-5-yl)-6-(methylamino)pyrimidin-4-yl}benzonitrile] | < 100 | < 100
Cc1ccc(-c2cnc(N3C[C@H]4CNC[C@H]4C3)nc2-c2ccc(C#N)cc2)cc1 [Example 21, 4-{2-[(3aR,6aS)-octahydropyrrolo[3,4-c]pyrrol-2-yl]-5-(4-methylphenyl)pyrimidin-4-yl}benzonitrile] | < 100 | < 100
Cn1ncc2cc(-c3cnc(N4CCC(N)CC4)nc3-c3ccc(C#N)cc3)cnc21 [Example 64, 4-[2-(4-aminopiperidin-1-yl)-5-(1-methylpyrazolo[3,4-b]pyridin-5-yl)pyrimidin-4-yl]benzonitrile] | < 100 | < 100
CNc1nc(N2CCC(N)CC2)nc(-c2ccc(C#N)c(F)c2)c1-c1ccc(N(C)C)nc1 [Example 169, 4-[2-(4-aminopiperidin-1-yl)-5-[6-(dimethylamino)pyridin-3-yl]-6-(methylamino)pyrimidin-4-yl]-2-fluorobenzonitrile] | < 100 | < 100
CNc1nc(N2CCC(N)CC2)nc(-c2ccc(C#N)c(F)c2)c1-c1cnn(CC(F)(F)F)c1 [Example 167, 4-[2-(4-aminopiperidin-1-yl)-6-(methylamino)-5-[1-(2,2,2-trifluoroethyl)-1H-pyrazol-4-yl]pyrimidin-4-yl]-2-fluorobenzonitrile] | < 100 | < 100
COc1ccc(-c2nc3ccn(C[C@@H]4CCNC4)c3cc2-c2ccc(C#N)c(F)c2)cc1F [Example 53, 4-{1-[((3R)pyrrolidin-3-yl)methyl]-5-(3-fluoro-4-methoxyphenyl)pyrrolo[3,2-b]pyridin-6-yl}-2-fluorobenzenecarbonitrile HCl salt] | < 100 | < 100
COc1nc(N2CCC(N)CC2)nc(-c2ccc(C#N)cc2)c1-c1cnc2c(c1)nnn2C [Example 158, 4-[2-(4-aminopiperidin-1-yl)-6-methoxy-5-{3-methyl-3H-[1,2,3]triazolo[4,5-b]pyridin-6-yl}pyrimidin-4-yl]benzonitrile] | < 100 | < 100
Cn1ncc2cc(-c3cnc(N4CCC5CNCC5CC4)nc3-c3ccc(C#N)cc3)cnc21 (stereo not shown) [Example 65, 4-[2-(2,3,3a,4,5,7,8,8a-octahydro-1H-pyrrolo[3,4-d]azepin-6-yl)-5-(1-methylpyrazolo[3,4-b]pyridin-5-yl)pyrimidin-4-yl]benzonitrile] | < 100 | < 100
N#Cc1ccc(-c2nc(NC[C@H]3CCNC3)ncc2-c2ccc(F)cc2)cc1 [Example 18, 4-[5-(4-fluorophenyl)-2-{[(3S)-pyrrolidin-3-ylmethyl]amino}pyrimidin-4-yl]benzonitrile] | 100 to 1000 | < 100
N#Cc1ccc(-c2nc(N3CCC(N)CC3)ncc2-c2ccc(OCC(F)(F)F)nc2)cc1 [Example 131, 4-[2-(4-aminopiperidin-1-yl)-5-[6-(2,2,2-trifluoroethoxy)pyridin-3-yl]pyrimidin-4-yl]benzonitrile] | 100 to 1000 | < 100
Cc1ccc(-c2nc3ccn(C[C@H]4CCNC4)c3cc2-c2ccc(C#N)cc2)cc1 [Example 3, 4-[5-(4-methylphenyl)-1-[[(3S)-pyrrolidin-3-yl]methyl]pyrrolo[3,2-b]pyridin-6-yl]benzonitrile] | < 100 | < 100
Cc1ccc(-c2cc(NC[C@H]3CCNC3)nn2-c2ccc(C#N)cc2)cc1 [Example 44, 4-[5-(4-methylphenyl)-3-[[(3S)-pyrrolidin-3-yl]methylamino]pyrazol-1-yl]benzonitrile] | 100 to 1000 | < 100
Cc1ccc(-c2cc(NCC3CCNCC3)nn2-c2ccc(C#N)cc2)cc1 [Example 46, 4-[5-(4-methylphenyl)-3-(piperidin-4-ylmethylamino)pyrazol-1-yl]benzonitrile] | 100 to 1000 | < 100
Cn1cnc2cc(-c3cnc(N4CCC(N)CC4)nc3-c3ccc(C#N)cc3)cnc21 [Example 66, 4-[2-(4-aminopiperidin-1-yl)-5-(3-methylimidazo[4,5-b]pyridin-6-yl)pyrimidin-4-yl]benzonitrile] | < 100 | < 100
Cn1cc2cc(-c3cnc(N4CC5C(N)C5C4)nc3-c3ccc(C#N)c(F)c3)ccc2n1 (stereo not shown) [Example 144, 4-[2-(6-amino-3-azabicyclo[3.1.0]hexan-3-yl)-5-(2-methylindazol-5-yl)pyrimidin-4-yl]-2-fluorobenzonitrile] | 100 to 1000 | < 100
Cc1ccc(-c2cnc(N3CC4CNCC(C4)C3)nc2-c2ccc(C#N)cc2)cc1 [Example 119, 4-[2-(3,7-diazabicyclo[3.3.1]nonan-3-yl)-5-(4-methylphenyl)pyrimidin-4-yl]benzonitrile] | 100 to 1000 | < 100
CNc1nc(N2CCC(N)CC2)nc(-c2ccc(C#N)c(F)c2)c1-c1cnc2c(cnn2C)c1 [Example 175, 4-[2-(4-aminopiperidin-1-yl)-5-{1-methyl-1H-pyrazolo[3,4-b]pyridin-5-yl}-6-(methylamino)pyrimidin-4-yl]-2-fluorobenzonitrile] | < 100 | < 100
COc1nc(N2CCC(N)CC2)nc(-c2ccc(C#N)cc2)c1-c1ccc2nn(C)cc2c1 [Example 152, 4-[2-(4-aminopiperidin-1-yl)-6-methoxy-5-(2-methyl-2H-indazol-5-yl)pyrimidin-4-yl]benzonitrile] | < 100 | < 100
Cn1cc2cc(-c3cnc(N4CCC(N)CC4)nc3-c3ccc(C#N)cc3)ccc2n1 [Example 128, 4-[2-(4-aminopiperidin-1-yl)-5-(2-methylindazol-5-yl)pyrimidin-4-yl]benzonitrile] | < 100 | < 100
COc1nc(N2CCC(N)CC2)nc(-c2ccc(C#N)cc2)c1-c1ccc2c(c1)nnn2C [Example 154, 4-[2-(4-aminopiperidin-1-yl)-6-methoxy-5-(1-methyl-1H-1,2,3-benzotriazol-5-yl)pyrimidin-4-yl]benzonitrile] | < 100 | < 100
CNc1nc(N2CCC(N)CC2)nc(-c2ccc(C#N)cc2)c1-c1ccc2c(c1)nnn2C [Example 170] | < 100 | < 100
Cn1nc2ccc(-c3cnc(N4CCC(N)CC4)nc3-c3ccc(C#N)c(F)c3)cc2c1N [Example 95, 4-[5-(3-amino-2-methylindazol-5-yl)-2-(4-aminopiperidin-1-yl)pyrimidin-4-yl]-2-fluorobenzonitrile] | < 100 | < 100
N#Cc1ccc(-c2nc(N3CCC(N)CC3)ncc2-c2cnc(N3CCCC3)nc2)cc1F [Example 135, 4-[2-(4-aminopiperidin-1-yl)-5-(2-pyrrolidin-1-ylpyrimidin-5-yl)pyrimidin-4-yl]-2-fluorobenzonitrile] | < 100 | < 100
COc1ccc(-c2nc3ccn(CC4CCNC4)c3cc2-c2ccc(C#N)c(F)c2)cc1F (stereo in doubt) [Example 55, 4-{1-[((3R)pyrrolidin-3-yl)methyl]-5-(3-fluoro-4-methoxyphenyl)pyrrolo[3,2-b]pyridin-6-yl}-2-fluorobenzenecarbonitrile, HCl salt] | < 100 | < 100
Cn1cc2cc(-c3cnc(N4CCC(N)CC4)nc3-c3ccc(C#N)c(F)c3)ccc2n1 [Example 59, 4-[2-(4-aminopiperidin-1-yl)-5-(2-methylindazol-5-yl)pyrimidin-4-yl]-2-fluorobenzonitrile] | < 100 | < 100
COc1ccc(-c2nc3ccn(C[C@@H]4CCNC4)c3cc2-c2ccc(C#N)cc2)cc1F [Example 50, 4-{1-[((3R)pyrrolidin-3-yl)methyl]-5-(3-fluoro-4-methoxyphenyl)pyrrolo[3,2-b]pyridin-6-yl}benzenecarbonitrile, HCl salt] | < 100 | < 100

— patent US10131664B2 (Celgene Quanticel Research, Inc., priority 2013, dated 2018)
